Experimental data reported in BindingDB's records for doi:10.1021/jm00145a024 (1985).

Test: Inhibitory binding constant in guinea pig brain homogenate was reported at Opioid receptor delta 1 at a temperature 25 degree Celsius labeled with [3H](D-Ala2-D-Leu5)-enkephalin (0.7 nM)

For `O=C1c2ccc(O)c3c2C24CCN(CC5CC5)C1[C@]2(O)CCC(=O)[C@@H]4O3` (stereo partly specified), the Ki was 281 nM.
